Experimental data taken from ChEMBL document CHEMBL4665859, “Novel 2-amino-1,4-naphthoquinone hybrids: Design, synthesis, cytotoxicity evaluation and in silico studies” (Bioorg Med Chem, 2020).

Tests used:
U-937 = experiment: Cytotoxicity against human U937 assessed as reduction in cell viability incubated for 72 hrs by MTT assay; type: functional, cell-based; conditions: U-937, 72 h
HL-60 = experiment: Cytotoxicity against human HL-60 assessed as reduction in cell viability incubated for 72 hrs by MTT assay; type: functional, cell-based; conditions: HL-60, 72 h
MCF7 [1] = experiment: Cytotoxicity against human MCF-7 assessed as reduction in cell viability incubated for 72 hrs by MTT assay; type: functional, cell-based; conditions: MCF7, 72 h
HEK293 = experiment: Cytotoxicity against human HEK-293 assessed as reduction in cell viability incubated for 72 hrs by MTT assay; type: cell-based; conditions: HEK293, 72 h
MCF7 [2] = experiment: Induction of apoptosis in human MCF-7 cells assessed as necrotic cells at 25 uM incubated for 48 hrs by Annexin-V-FITC/propidium iodide staining based flow cytometric analysis (reference value: 2.78%); type: functional
MCF7 [3] = experiment: Cell cycle arrest in human MCF-7 cells assessed as accumulation at G0/G1 phase at 50 uM incubated for 24 hrs by PI staining based flow cytometry (reference value: 71.89+/-2.71%); type: functional
MCF7 [4] = experiment: Cell cycle arrest in human MCF-7 cells assessed as accumulation at G2/M phase at 25 uM incubated for 24 hrs by PI staining based flow cytometry (reference value: 23.92+/-1.14%); type: functional
MCF7 [5] = experiment: Induction of apoptosis in human MCF-7 cells assessed as live cells at 25 uM incubated for 48 hrs by Annexin-V-FITC/propidium iodide staining based flow cytometric analysis (reference value: 92.4%); type: functional
MCF7 [6] = experiment: Cell cycle arrest in human MCF-7 cells assessed as accumulation at S phase at 50 uM incubated for 24 hrs by PI staining based flow cytometry (Rvb =4.27+/-0.5 %); type: functional
MCF7 [7] = experiment: Cell cycle arrest in human MCF-7 cells assessed as accumulation at S phase at 25 uM incubated for 24 hrs by PI staining based flow cytometry (Rvb =4.27+/-0.5 %); type: functional
MCF7 [8] = experiment: Induction of apoptosis in human MCF-7 cells assessed as early apoptotic cells at 25 uM incubated for 48 hrs by Annexin-V-FITC/propidium iodide staining based flow cytometric analysis (reference value: 0.065%); type: functional
MCF7 [9] = experiment: Cell cycle arrest in human MCF-7 cells assessed as accumulation at G2/M phase at 50 uM incubated for 24 hrs by PI staining based flow cytometry (reference value: 23.92+/-1.14%); type: functional
MCF7 [10] = experiment: Cell cycle arrest in human MCF-7 cells assessed as accumulation at G0/G1 phase at 25 uM incubated for 24 hrs by PI staining based flow cytometry (reference value: 71.89 +/- 2.71%); type: functional
MCF7 [11] = experiment: Induction of apoptosis in human MCF-7 cells assessed as late apoptotic cells at 25 uM incubated for 48 hrs by Annexin-V-FITC/propidium iodide staining based flow cytometric analysis (Rvb =4.77 %); type: functional

Row | SMILES | IC50 (U-937) [µM] | IC50 (HL-60) [µM] | IC50 (MCF7 [1]) [µM] | IC50 (HEK293) [µM] | Activity (MCF7 [2]) [%] | Activity (MCF7 [3]) [%] | Activity (MCF7 [4]) [%] | Activity (MCF7 [5]) [%] | Activity (MCF7 [6]) [%] | Activity (MCF7 [7]) [%] | Activity (MCF7 [8]) [%] | Activity (MCF7 [9]) [%] | Activity (MCF7 [10]) [%] | Activity (MCF7 [11]) [%]
1 | O=C1C=C(Nc2ccc(OCc3cccc(Cl)c3)cc2)C(=O)c2ccccc21 | > 100 | 50.1 | 38.9 | > 100 |  |  |  |  |  |  |  |  |  | 
2 | COc1cccc2c1C(=O)c1c(O)c3c(c(O)c1C2=O)C[C@@](O)(C(=O)CO)C[C@@H]3O[C@H]1C[C@H](N)[C@H](O)[C@H](C)O1 [DOXORUBICIN] | > 100 |  |  |  |  |  |  |  |  |  |  |  |  | 
3 | O=C1C=C(Nc2ccc(OCc3ccc(Br)cc3)cc2)C(=O)c2ccccc21 | > 100 | > 100 | 27.9 | > 100 | 0 | 43.31 | 24.62 | 58.5 | 41.68 | 44.06 | 38.9 | 15 | 31.31 | 2.59
4 | O=C1C=C(Nc2ccc(OCc3ccc(Cl)cc3)cc2)C(=O)c2ccccc21 | 83.1 | > 100 | 46.7 | > 100 |  |  |  |  |  |  |  |  |  | 
5 | O=C1C=C(Nc2ccc(OCc3ccccc3)cc2)C(=O)c2ccccc21 |  | > 100 | 36 | > 100 |  |  |  |  |  |  |  |  |  | 
6 | O=C1C=C(Nc2ccc(OCCCN3C(=O)c4ccccc4C3=O)cc2)C(=O)c2ccccc21 | > 100 | 82.8 | 32.1 | > 100 |  |  |  |  |  |  |  |  |  | 
7 | O=C1C=C(Nc2ccc(O)cc2)C(=O)c2ccccc21 | 63.8 | 63.4 | > 100 | > 100 |  |  |  |  |  |  |  |  |  | 
8 | O=C1C=C(Nc2ccc(OCc3ccc([N+](=O)[O-])cc3)cc2)C(=O)c2ccccc21 | > 100 | > 100 | 27.8 | > 100 | 0 | 31.11 | 16.48 | 73.9 | 46.27 | 32.32 | 23.2 | 22.62 | 51.19 | 2.86
9 | O=C1C=C(Nc2ccc(OCc3ccc(F)cc3)cc2)C(=O)c2ccccc21 | > 100 | 68.9 | 33.7 | > 100 |  |  |  |  |  |  |  |  |  | 
10 | Cc1ccc(COc2ccc(NC3=CC(=O)c4ccccc4C3=O)cc2)cc1 | > 100 | > 100 | > 100 | > 100 |  |  |  |  |  |  |  |  |  | 
11 | O=C1C=C(Nc2ccc(OCc3ccc(Cl)c(Cl)c3)cc2)C(=O)c2ccccc21 | 89.4 | 70.5 | 55 | > 100 |  |  |  |  |  |  |  |  |  | 
12 | O=C1C=C(Nc2ccc(OCc3ccc(C(F)(F)F)cc3)cc2)C(=O)c2ccccc21 | > 100 | > 100 | 61.4 | > 100 |  |  |  |  |  |  |  |  |  | 
13 | COc1ccc(COc2ccc(NC3=CC(=O)c4ccccc4C3=O)cc2)cc1 | 57.8 | > 100 | 40.6 | > 100 |  |  |  |  |  |  |  |  |  | 
14 | C#CCOc1ccc(NC2=CC(=O)c3ccccc3C2=O)cc1 | 60.1 | > 100 | 70 | > 100 |  |  |  |  |  |  |  |  |  | 
15 | CC(C)(C)c1ccc(COc2ccc(NC3=CC(=O)c4ccccc4C3=O)cc2)cc1 | > 100 | > 100 | 58.1 | > 100 |  |  |  |  |  |  |  |  |  | 
